Experiments:
[1] = target: T1, Serine/threonine-protein kinase DCLK2 (Homo sapiens) (UniProt Q8N568); assay: Residual activity of DCAMKL2 at 1 uM by microplate scintillation counting
T1 sequence (whole entry): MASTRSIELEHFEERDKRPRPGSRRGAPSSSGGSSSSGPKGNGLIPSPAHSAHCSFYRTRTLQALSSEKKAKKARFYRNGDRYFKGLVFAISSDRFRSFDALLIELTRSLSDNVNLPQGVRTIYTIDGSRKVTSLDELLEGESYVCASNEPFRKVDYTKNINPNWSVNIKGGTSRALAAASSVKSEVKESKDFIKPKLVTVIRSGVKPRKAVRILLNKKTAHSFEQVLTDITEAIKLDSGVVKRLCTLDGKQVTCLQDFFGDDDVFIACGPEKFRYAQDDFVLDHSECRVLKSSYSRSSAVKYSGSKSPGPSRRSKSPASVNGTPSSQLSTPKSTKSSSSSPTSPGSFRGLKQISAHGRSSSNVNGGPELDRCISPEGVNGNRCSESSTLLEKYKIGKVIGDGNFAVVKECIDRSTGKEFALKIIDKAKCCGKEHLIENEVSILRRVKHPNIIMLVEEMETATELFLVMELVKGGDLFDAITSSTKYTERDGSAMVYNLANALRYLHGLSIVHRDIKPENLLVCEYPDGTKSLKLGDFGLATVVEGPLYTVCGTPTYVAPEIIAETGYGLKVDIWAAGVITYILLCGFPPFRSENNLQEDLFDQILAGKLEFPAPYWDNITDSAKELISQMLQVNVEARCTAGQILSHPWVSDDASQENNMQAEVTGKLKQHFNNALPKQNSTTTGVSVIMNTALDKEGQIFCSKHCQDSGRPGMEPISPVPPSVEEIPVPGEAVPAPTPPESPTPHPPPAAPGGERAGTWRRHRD

[2] = target: Receptor-interacting serine/threonine-protein kinase 2 (Homo sapiens) (UniProt O43353); assay: Residual activity of RIPK2 at 1 uM by microplate scintillation counting
[3] = target: Tyrosine-protein kinase ABL2 (Homo sapiens) (UniProt P42684); assay: Residual activity of ABL2 at 10 uM by microplate scintillation counting
[4] = target: T2, Ephrin type-B receptor 1 (Homo sapiens) (UniProt P54762); assay: Residual activity of EPHB1 at 0.1 uM by microplate scintillation counting
T2 sequence (whole entry): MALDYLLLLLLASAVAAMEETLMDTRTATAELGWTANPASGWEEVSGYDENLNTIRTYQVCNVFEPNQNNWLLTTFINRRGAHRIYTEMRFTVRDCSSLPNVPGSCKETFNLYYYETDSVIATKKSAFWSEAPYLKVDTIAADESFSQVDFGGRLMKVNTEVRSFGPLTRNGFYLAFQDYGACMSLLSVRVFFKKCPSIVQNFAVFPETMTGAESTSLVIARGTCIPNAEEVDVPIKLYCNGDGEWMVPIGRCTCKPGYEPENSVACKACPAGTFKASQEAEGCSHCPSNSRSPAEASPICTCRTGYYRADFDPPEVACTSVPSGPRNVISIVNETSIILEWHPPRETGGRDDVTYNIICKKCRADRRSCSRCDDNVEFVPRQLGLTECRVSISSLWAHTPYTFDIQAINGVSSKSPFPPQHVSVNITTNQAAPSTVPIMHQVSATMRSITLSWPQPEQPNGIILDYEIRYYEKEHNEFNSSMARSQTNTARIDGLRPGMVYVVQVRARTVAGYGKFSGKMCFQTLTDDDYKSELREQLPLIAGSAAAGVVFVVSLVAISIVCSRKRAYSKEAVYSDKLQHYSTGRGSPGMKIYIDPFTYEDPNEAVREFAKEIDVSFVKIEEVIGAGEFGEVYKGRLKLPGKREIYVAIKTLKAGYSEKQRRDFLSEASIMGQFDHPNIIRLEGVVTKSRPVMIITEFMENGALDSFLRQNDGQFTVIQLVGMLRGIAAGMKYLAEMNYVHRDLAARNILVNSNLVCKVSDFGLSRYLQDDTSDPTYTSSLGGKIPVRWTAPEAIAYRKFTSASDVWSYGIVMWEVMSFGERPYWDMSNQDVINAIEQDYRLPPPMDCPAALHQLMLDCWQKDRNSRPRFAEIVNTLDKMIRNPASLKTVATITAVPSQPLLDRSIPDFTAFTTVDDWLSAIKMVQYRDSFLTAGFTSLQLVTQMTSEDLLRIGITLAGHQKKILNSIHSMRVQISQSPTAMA

[5] = target: Ribosomal protein S6 kinase alpha-5 (Homo sapiens) (UniProt O75582); assay: Residual activity of RPS6KA5 at 10 uM by microplate scintillation counting
Ribosomal protein S6 kinase alpha-5 (Homo sapiens), sequence (O75582 whole entry, looked up): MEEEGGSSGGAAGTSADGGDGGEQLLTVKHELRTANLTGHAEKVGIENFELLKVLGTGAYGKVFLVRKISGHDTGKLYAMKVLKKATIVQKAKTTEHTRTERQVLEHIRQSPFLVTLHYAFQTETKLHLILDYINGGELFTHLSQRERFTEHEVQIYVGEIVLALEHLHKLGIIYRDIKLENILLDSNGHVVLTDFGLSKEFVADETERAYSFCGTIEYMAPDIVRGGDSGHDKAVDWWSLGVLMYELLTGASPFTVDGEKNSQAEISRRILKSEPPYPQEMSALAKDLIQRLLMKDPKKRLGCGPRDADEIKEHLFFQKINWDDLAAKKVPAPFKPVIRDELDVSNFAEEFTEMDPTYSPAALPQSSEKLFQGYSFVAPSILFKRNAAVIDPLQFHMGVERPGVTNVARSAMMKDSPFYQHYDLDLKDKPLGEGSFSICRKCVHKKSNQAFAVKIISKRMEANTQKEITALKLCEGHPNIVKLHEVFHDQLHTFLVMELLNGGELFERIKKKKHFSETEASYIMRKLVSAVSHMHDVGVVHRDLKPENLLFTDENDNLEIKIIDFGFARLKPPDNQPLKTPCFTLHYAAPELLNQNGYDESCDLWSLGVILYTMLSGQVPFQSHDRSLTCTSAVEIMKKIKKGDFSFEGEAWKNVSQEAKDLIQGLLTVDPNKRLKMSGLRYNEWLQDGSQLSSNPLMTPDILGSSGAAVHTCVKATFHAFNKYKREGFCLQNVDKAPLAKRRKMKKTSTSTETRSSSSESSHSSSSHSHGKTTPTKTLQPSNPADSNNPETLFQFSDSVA

Tyrosine-protein kinase ABL2 (Homo sapiens), sequence (P42684 whole entry): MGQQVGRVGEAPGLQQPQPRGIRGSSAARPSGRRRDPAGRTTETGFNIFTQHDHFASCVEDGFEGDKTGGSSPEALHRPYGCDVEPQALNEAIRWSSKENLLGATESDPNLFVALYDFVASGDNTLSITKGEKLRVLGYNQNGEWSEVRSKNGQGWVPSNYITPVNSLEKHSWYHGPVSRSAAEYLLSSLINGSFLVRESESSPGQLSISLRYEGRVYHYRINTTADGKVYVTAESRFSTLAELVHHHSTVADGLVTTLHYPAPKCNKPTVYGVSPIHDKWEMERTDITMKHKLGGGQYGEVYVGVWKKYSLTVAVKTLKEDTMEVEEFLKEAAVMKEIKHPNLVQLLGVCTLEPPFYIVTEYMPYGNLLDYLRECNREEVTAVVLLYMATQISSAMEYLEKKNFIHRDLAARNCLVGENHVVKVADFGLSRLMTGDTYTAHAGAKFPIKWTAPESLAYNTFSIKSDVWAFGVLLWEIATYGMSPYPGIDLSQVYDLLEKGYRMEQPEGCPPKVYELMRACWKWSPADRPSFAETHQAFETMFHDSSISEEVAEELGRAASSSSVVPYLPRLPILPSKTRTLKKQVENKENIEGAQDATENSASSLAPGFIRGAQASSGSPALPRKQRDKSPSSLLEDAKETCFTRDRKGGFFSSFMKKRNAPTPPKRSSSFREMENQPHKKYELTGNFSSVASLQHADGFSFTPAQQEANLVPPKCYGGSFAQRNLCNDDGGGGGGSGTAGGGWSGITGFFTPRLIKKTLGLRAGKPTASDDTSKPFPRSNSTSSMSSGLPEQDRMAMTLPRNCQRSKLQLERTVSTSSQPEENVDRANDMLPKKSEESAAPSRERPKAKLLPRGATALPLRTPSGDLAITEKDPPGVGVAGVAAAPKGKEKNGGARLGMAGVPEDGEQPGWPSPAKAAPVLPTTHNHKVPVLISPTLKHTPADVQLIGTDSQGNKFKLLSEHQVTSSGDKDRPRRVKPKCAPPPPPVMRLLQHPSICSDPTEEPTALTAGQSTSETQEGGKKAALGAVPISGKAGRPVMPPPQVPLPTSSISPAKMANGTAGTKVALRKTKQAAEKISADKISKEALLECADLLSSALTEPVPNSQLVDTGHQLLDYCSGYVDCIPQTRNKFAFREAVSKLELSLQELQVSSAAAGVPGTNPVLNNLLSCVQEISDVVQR
Receptor-interacting serine/threonine-protein kinase 2 (Homo sapiens), sequence (O43353 whole entry): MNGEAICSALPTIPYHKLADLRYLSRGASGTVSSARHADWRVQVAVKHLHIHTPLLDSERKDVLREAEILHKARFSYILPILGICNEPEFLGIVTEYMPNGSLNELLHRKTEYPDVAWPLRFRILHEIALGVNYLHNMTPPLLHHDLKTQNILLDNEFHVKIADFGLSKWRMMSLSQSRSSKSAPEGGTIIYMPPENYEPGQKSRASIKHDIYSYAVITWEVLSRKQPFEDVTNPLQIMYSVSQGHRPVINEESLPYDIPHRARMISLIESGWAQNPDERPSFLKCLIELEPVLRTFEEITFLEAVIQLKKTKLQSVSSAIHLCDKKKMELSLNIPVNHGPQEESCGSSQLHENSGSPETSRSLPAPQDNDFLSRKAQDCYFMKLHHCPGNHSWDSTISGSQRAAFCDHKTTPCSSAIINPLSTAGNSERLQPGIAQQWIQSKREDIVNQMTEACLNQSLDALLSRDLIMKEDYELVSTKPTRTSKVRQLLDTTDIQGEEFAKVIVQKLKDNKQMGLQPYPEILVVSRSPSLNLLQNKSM

residual activity [1] | residual activity [2] | residual activity [3] | residual activity [4] | residual activity [5] | SMILES
71% | 29% | 147% | 99% | 140% | COc1cc2c(Oc3ccc(-c4nc5ccccc5s4)cc3)ncnc2cc1OCCCN1CCCC1
80% | 25% | 170% | 118% | 146% | COc1cc2c(Oc3ccc(-c4nc5ccccc5s4)cc3)ncnc2cc1OCCCN1CCN(C)CC1
76% | 29% | 93% | 123% | 151% | COc1cc2c(Oc3ccc(-c4nc5ccccc5s4)cc3F)ncnc2cc1OCCCN1CCN(C)CC1

From ChEMBL document CHEMBL1152560, “Substituted 2-arylbenzothiazoles as kinase inhibitors: hit-to-lead optimization” (Bioorg Med Chem, 2009)
